Tests used:
acetylated α-Tubulin = test: In-cell western analysis of acetylated α-Tubulin in DRG neurons; type: cell-based, Sprague Dawley rat; settings: for Acetylated α-Tubulin (% of UT): DRG neurons
Procedure: (§1) Dorsal Root Ganglion neurons were obtained by dissociation of post natal (P2) Sprague Dawley rat ganglia (Envigo, Bresso Italy), following well-defined protocols (O'Meara et al, 2011; Owen et al, 2012). To minimize introduction of contaminating cells into the culture, any excessively long roots were trimmed from DRGs. After the isolation, DRGs were enzymatically dissociated as follows: • 20 minutes of 1.5 mg/ml papain exposure at 37° C., • 30 minutes of 4 mg/ml collagenase exposure at 37° C.
(§2) Subsequently, cells were mechanically dissociated with a fire polished glass Pasteur pipette, in order to obtain a single cell suspension.
(§3) Once dissociation was achieved, cells were seeded onto 96 black multiwell plates coated with Laminin (10 ug/mL, overnight at Room Temperature, RT) at selected densities. Following 1 week of incubation in DMEM high glucose medium supplemented with 10% FBS, 1× N2, 1× B27, 100 IU/mI penicillin, […] streptomycin, cells were treated according to experimental needs.
Dorsal Root Ganglion neurons isolated as previously reported were subjected to the following experimental challenge scheme as depicted in FIG. 10.
Paclitaxel, C5a and drugs were administered 24 hr prior the in-cell western experiment. Following 24 hr of treatment with appropriate stimuli as previously indicated, cells were washed with 1×PBS and fixed with 3,7% formaldehyde for 15 min. After the removal of fixing solution, cells were washed with 1×PBS and permeabilized with 1×PBS-0,1% Triton X-100 for 5 min at RT. Cells were then stained over night at 4° C. with the anti-acetylated α-Tubulin antibody, diluted 1:500 in Odyssey Blocking buffer, following manufacturer's protocol.
The next day, cells were washed with 1×PBS-0.1% Tween20, and stained with the secondary antibody (diluted 1:800 in Odyssey Blocking buffer, as recommended by the protocol) and with the CellTag 700Stain […]. To lower the background, Tween20 at a final concentration of 0.2% was added to the Odyssey Blocking buffer. 96-well plates were then read at Odyssey CLx Imaging system and images acquired. Data analysis was carried out by the use of Image Studio 2.1 software.
Paclitaxel was given to the DRG neurons following 7 days of culture at the concentration of 200 nM (Scuteri et al. 2006).
Effect of DF3966Y in C5α-induced neuronal toxicity In order to determine whether the observed effects may be triggered also by C5a, recombinant mouse C5a 1 μg/ml (111.11 nM) was given to the DRG neurons after 7 days of culture in presence or absence of DF3966Y 1 μM.
After 24 hr of incubation, acetylated α-Tubulin was quantified using in-cell western technique, as previously described.

[1] = tested on: chemotherapy-induced iatrogenic pain (CIIP) in male Balb/C mice; test: CIIP model (paclitaxel), cold response acetone test, DF2593A; type: in vivo
Procedure: (§4) The experiments were performed in male Balb/c wild type (WT) and in C5aR deficient (C5aR^−/−) mice (6-8 weeks age). For the experiments with DF2593A, animals were housed in the animal care facility of the Ribeirao Preto Medical School, University of Sao Paulo, in plastic cages at 20° C.±1° C. with water and food ad libitum and controlled light/dark cycle. When done oral acute treatment, animals were kept without food for 2-4 hours. Animals were taken to the testing room at least 1 h before experiments and were used only once. Animal care and handling procedures were in accordance with the International Association for the Study of Pain guidelines and with the control of Animal Ethic Committee from Ribeirao Preto Medical School, protocol 120/2014.
(§5) The protocol used was performed according POLOMANO et al., 2001, adapted to mice. The animals received paclitaxel 4 mg/kg intraperitoneally (i.p.) for four alternate days (days 1, 3, 5, and 7). During treatment period, mechanical and cold allodynia were measured 4 hours after the injection of paclitaxel.
(§6) DF2593A was orally given in dose of 1 mg/kg at 8 and 14th days after first paclitaxel injection. The effect of drug was evaluated 2, 4, 6 and 24 hours after administration.
(§7) DF2593A was given orally in a dose of 1 mg/kg, 12 in 12 hours, for 7 days during the induction phase of CIIP. On days 1, 3 5 and 7, the administration of DF2593A was 1 hour before paclitaxel.
(§8) DF2593A in doses of 10, 30 or 100 μg/5 μL was injected at 8 and 14th days after the first injection of paclitaxel (CIIP).
In the same apparatus of von Frey test, and nearly 15 minutes after the mechanical test, was performed the acetone test. With a 1 mL syringe, one drop (50 μL) of pure acetone was released allowing the spreading of liquid for the both paw surfaces (dorsal and plantar). All movements as licking, flinching or lifting of paw were recorded with a chronometer in a total testing time of 2 minutes.

[2] = tested on: chemotherapy-induced iatrogenic pain (CIIP) in male Balb/C mice; test: CIIP model (paclitaxel), mechanical threshold with von Frey filaments, DF2593A; type: in vivo
Procedure: as §4, §5, §6, §7, §8
(§9) In DF2593A experiments, mechanical hyperalgesia was tested using von Frey filaments. Mice were placed in acrylic cages (12×10×17 cm) with wire grid floors in a quiet room 15-30 minutes before the start of testing. A crescent series of filaments were applied on right paw of CIIP mice. The lower filament able to elicit flinching movements was recorded as the mechanical threshold. The animals were tested before and after treatments and the results are expressed as log of mechanical threshold.

DRG neurons [3] = test: Electrophysiological recordings (whole-cell patch-clamp, current-clamp) of DRG-derived neurons; type: cell-based, Sprague Dawley rat; settings: 1 μg/ml C5a alone
Procedure: as §1
Dorsal Root Gangliar (DRG)-derived neurons were cultured for 7 days and then treated in blind with the following combinations: 10 nM Paclitaxel, 10 nM Paclitaxel+1 μM DF3966Y, 1 μg/ml C5a, 1 μg/ml C5a+1 μM DF3966Y.
The compounds were administered for 1 min 30 sec (short acute stimulation) or 5 minutes (long chronic stimulation). The application of the compounds was followed by a wash-out in the physiological control solution for an equivalent time (about 10 min).
Electrophysiological recordings were performed by the patch-clamp technique in the whole-cell configuration. The standard extracellr solution was bath applied and contained the following (mM): NaCl 135, KCl 2, CaCl2 2, MgCl2 2, hepes 10, glucose 5, pH 7.4. The standard pipet solution contained the following (mM): potassium aspartate 130, NaCl 10, MgCl2 2, CaCl2 1.3, EGTA 10, Hepes 10, pH 7.3. Recordings were acquired by the pClamp8.2 software and the MultiClamp 700A amplifier (Axon Instruments), in current-clamp mode.

DRG neurons [4] = test: Synapse number on DRG neurons (synaptotagmin staining, image analysis); type: cell-based, Sprague Dawley rat
Procedure: as §1, §2, §3
(§10) Alpha Tubulin Acetylation DRG-derived neurons were cultured for 7 days and then treated with:
(§11) • paclitaxel (200 nM, 500 nM, 1 μM and 5 μM, 20 μM) in presence or absence of DF3966Y (0.1, 1 and 10 μM) or DF2593A (0.1, 1 and 10 μM) • or C5a (500 ng/ml and 1 μg/ml) in presence or absence of DF3966Y (1 μM)
(§12) After 24 hr of treatment, cells were stained by immunofluorescence.
(§13) Cells were fixed with saccharose-paraformaldehyde then staining was performed overnight. Primary antibodies (anti—Ill Tubulin and anti-synaptotagmin 1) were diluted 1:500 in 1×PBS-4% BSA-2% Normal goat serum and 0.3% Triton x-100. The next day, cells were washed with 1×PBS-4% BSA and secondary antibodies were used diluted 1:500 in 1×PBS-4% BSA-2% Normal goat serum and 0.3% Triton x-100. After 1 hr of incubation, cells were washed with 1×PBS. Hoechst was used as a counterstain.
(§14) Sixteen images per well were taken with ArrayScan XTI HCA Reader (Thermo Fisher Scientific) with and 40× objective. All the analysis were done with HCS Studio software
For synapse count a threshold has been set, in particular all the objects, positive to synaptotagmin staining, in the range 0.365-2.457 μm^2 have been considered as synapses.
(§15) Cells number, synapse number and dentritic arborization were evaluated in untreated cells and in cells stimulated with paclitaxel and C5a alone or in presence of the drug. As marker of chemotherapy-induced toxicity, the total number of synapses on DRG neurons was quantitative evaluated as percentage of the number of synapse with respect to untreated (UT) control.
(§16) Data are obtained as the sum of the values obtained by the analysis of sixteen fields per well for each experiment. Percentage of the values in respect to the relative mean untreated group was calculated. Mean of the percentages from 4 separate experiments was plotted in the following Tables 2-7.

male Balb/C mice [5] = test: Intrathecal injection of recombinant C5a, thermal threshold (Hargreaves test); type: in vivo; settings: higher doses, between 5 and 7 hours after injection
Procedure: as §4
(§17) Recombinant mouse C5a was given by intrathecal way, in a volume of 5 μL, and its effect follows for 1, 3, 5, 7 and 24 hours after injection.
Hargreaves test was performed as previous described (HARGREAVES et al., 1988). The animals were habituated on a glass surface with controlled temperature, which allow the homogeneous delivery of infrared light on the paw. After the activation of the light source, a chronometer was turned on. A crescent temperature reached the paw and the chronometer was turned off as soon as the animal did a withdraw movement out the light. The time recorded was considered the heat latency. […]

male Balb/C mice [6] = test: Intrathecal injection of recombinant C5a, mechanical threshold (von Frey hair test); type: in vivo
Procedure: as §4, §17, §9

DRG neurons [7] = test: Dendritic tree area of DRG neurons (image analysis); type: cell-based, Sprague Dawley rat; settings: C5a alone (Table 7), relative to UT
Procedure: as §1, §2, §3, §10, §11, §12, §13, §14
Dendritic arborization directly influences synaptic genesis and input. A well-developed arborization indicates a functional synaptic network. For this reason, the area occupied by dendritic arborization has been quantified.
as §16

DRG neurons [8] = test: Cells number of DRG neurons (immunofluorescence, image analysis); type: cell-based
Procedure: as §1, §2, §3, §10, §11, §12, §13, §14, §15, §16

[9] = 1 mg/kg oral, 8th and 14th day of CIIP, 2 until 6 hours after administration
[10] = 1 mg/kg p.o. 12/12 hours for 7 days during induction phase of CIIP, 1 hour before paclitaxel
[11] = 10, 30 or 100 μg/5 μL intrathecal, established CIIP (8 and 14th day)

In the case of `C[C@@H](NC(=O)CCCN1CCCCC1)c1ccc(OS(=O)(=O)C(F)(F)F)cc1` [DF2593A, N-[(1R)-1-(4-trifluoromethanesulfonyloxy)phenylethyl]-4-piperidin-1-ylbutanamide], the “Acetylated α-Tubulin (% of UT)” value (acetylated α-Tubulin; drug 0.1 μM under Paclitaxel 200 nM, 24 hr) is reported as 107.38 % of UT, the “reversal of Paclitaxel-induced increase in acetylated α-Tubulin” value (acetylated α-Tubulin; drug 0.1 μM, Paclitaxel 200 nM) is reported as “not able to revert” and the “Acetylated α-Tubulin (% of UT)” value (acetylated α-Tubulin; drug 1 μM under Paclitaxel 200 nM, 24 hr) is reported as 100.67 % of UT. For the same molecule, the “reversal of Paclitaxel-induced increase in acetylated α-Tubulin” value (acetylated α-Tubulin; drug 1 μM, Paclitaxel 200 nM) was “reverted the Paclitaxel-induced challenge”, the “Acetylated α-Tubulin (% of UT)” value (acetylated α-Tubulin; drug 10 μM under Paclitaxel 200 nM, 24 hr) was 70.72 % of UT and the “reduction in acetylated α-Tubulin with respect to control (UT) cells” value (acetylated α-Tubulin; drug 10 μM, Paclitaxel 200 nM) was “about 25%”. The “cold response, acute oral post treatment” value [1, 9] was “is reduce after DF2593A treatment”, the “development of cold nociceptive response, chronic pre treatment” value [1, 10] was “prevents the development” and the “cold allodynia, intrathecal treatment” value [1, 11] was “improves mechanical and cold allodynia”. The “efficacy of the lowest intrathecal dose” value ([2]; 10 μg/5 μL intrathecal, 8th day) was “still statistically significant”, the “mechanical hypersensitivity, acute oral post treatment” value [2, 9] was “able to reduce the mechanical hypersensitivity” and the “duration of reduction of mechanical and cold hypersensitivity after administration” value ([2]; 1 mg/kg oral, established pain condition) was “at least 6 hours”. For the same molecule, the “development of mechanical nociceptive response, chronic pre treatment” value [2, 10] was “prevents the development”, the “mechanical allodynia, intrathecal treatment” value [2, 11] was “improves mechanical and cold allodynia” and the “effect on mechanical and cold response 24 hours after the last dose” value ([2]; chronic 1 mg/kg p.o., 24 hours after the last DF2593A dose) was “no effect is observed”.

B1: C5a: recombinant mouse C5a, complement peptide fragment, purchased from R&D (protein, UniProt P06684 679-755, looked up)
C5a anaphylatoxin: NLHLLRQKIEEQAAKYKHSVPKKCCYDGARVNFYETCEERVARVTIGPLCIRAFNECCTIANKIRKESPHKPVQLGR
modifications: C5a anaphylatoxin
notes: recombinant mouse C5a, complement peptide fragment, purchased from R&D
For B1, the “increase of the firing rate, immediate” value (DRG neurons [3]; immediate) was “+55.61%”, the “reduction of electrical activity, longer times of exposure” value (DRG neurons [3]; longer times of exposure) was “about 70%” and the “neuronal activity damage (synapse number)” value (DRG neurons [4]; C5a alone) was “did not induce neuronal activity damage”. The “% of synapse number” value (DRG neurons [4]; C5a alone (Table 5), relative to UT) was 116.90 ± 17.43%, the “levels of acetylated α-Tubulin under C5a” value (acetylated α-Tubulin; C5a 1 μg/ml alone, 24 hr) was “able to increase the levels of acetylated α-Tubulin” and the “heat latency after intrathecal C5a” value (male Balb/C mice [5]) was “caused a decrease in heat latency”. For the same molecule, the “mechanical threshold after intrathecal C5a” value (male Balb/C mice [6]; 100, 300 and 600 ng/5 μL intrathecal, mice, up to 24 hours after injection) was “promoted reduction of mechanical threshold in a dose-dependent manner”, the “C5a pro-nociceptive effect in C5aR−/− mice” value (male Balb/C mice [6]; intrathecal C5a, C5aR−/− mice) was “abrogated” and the “% dendritic tree area” value (DRG neurons [7]) was 102.68 ± 9.48%. For the same molecule, the “% of cell number” value (DRG neurons [8]; C5a alone (Table 3), relative to UT) was 98.69 ± 4.22% and the neuronal death (DRG neurons [8]; C5a alone or in combination with DF3966Y 1 μM) was “did not induce neuronal death”.

Source: US12102607B2, “C5aR inhibitors for use in the treatment of chemotherapy-induced iatrogenic pain” (Dompe' Farmaceutici S.P.A., priority 2017, dated 2024)
